Results reported in patent US6855693B2, “Peptides for activation and inhibition of δPKC” (The Board of Trustees of the Leland Stanford Junior …, priority 2001, dated 2005).
No end group written: not given here.

Key:
εPKC = target: T1, εPKC (Rattus norvegicus, UniProt P09216); test: Translocation of εPKC in primary cardiac myocytes (Western blot); format: cell-based; settings: data not shown
T1 construct: blots probed with anti-δPKC, anti-αPKC and anti-εPKC antibodies; endogenous in cells; host or cells: primary neonatal rat cardiac myocytes
T1 sequence (P09216 1-737): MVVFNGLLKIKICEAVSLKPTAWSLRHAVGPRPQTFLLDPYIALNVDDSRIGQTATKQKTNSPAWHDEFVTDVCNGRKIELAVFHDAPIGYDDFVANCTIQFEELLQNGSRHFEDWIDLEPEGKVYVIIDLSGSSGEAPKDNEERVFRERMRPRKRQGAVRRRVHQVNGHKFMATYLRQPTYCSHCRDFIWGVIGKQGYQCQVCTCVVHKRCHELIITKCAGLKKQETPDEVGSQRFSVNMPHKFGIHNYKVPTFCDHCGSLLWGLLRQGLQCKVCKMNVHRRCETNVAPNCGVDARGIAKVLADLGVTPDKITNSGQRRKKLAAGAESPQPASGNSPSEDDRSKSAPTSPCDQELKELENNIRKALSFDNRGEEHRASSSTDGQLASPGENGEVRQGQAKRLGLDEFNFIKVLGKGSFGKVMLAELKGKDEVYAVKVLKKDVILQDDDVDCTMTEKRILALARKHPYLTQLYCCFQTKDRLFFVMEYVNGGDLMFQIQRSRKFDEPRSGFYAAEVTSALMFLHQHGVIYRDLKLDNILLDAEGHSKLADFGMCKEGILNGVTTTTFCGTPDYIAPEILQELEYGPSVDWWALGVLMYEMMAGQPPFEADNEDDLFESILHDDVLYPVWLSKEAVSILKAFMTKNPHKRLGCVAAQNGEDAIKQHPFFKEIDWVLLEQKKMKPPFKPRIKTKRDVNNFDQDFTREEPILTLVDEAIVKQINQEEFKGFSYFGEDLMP
Experimental: As described in Example 1, the δV1-1 and ψδRACK peptides were analyzed to determine whether the peptides had activity, and if so, whether the activity was as an agonist or an antagonist of δPKC. As will be shown, δV1-1, δV1-2 and δV1-5 are δPKC antagonists and ψδRACK is a δPKC agonist. In these studies, the δV1-1 and ψδRACK peptides were modified with a carrier peptide by cross-linking via an N-terminal Cys-Cys bond to the Drosophila Antennapedia homeodomain (SEQ ID NO:8; Théodore, L., et al.; Johnson, J. A. et al., 1996b). […] Translocation of δPKC isozyme was assessed by Western blot analysis cystosolic and particulate fractions of treated cells. Subcellular localization of δPKC isozyme was assessed by immunofluorescence by probing the blot with […], and anti-εPKC antibodies. Translocation was expressed as the amount of isozyme in the particulate fraction over the amount of isozyme in non-treated cells. […]
Translocation of δPKC isozyme was assessed by using δPKC isozyme-specific antibodies in Western blot analysis (Santa Cruz Biotechnology). […] Subcellular localization of dPKC isozymes was assessed by chemiluminescence of blots probed with anti-δPKC, anti-αPKC and anti-εPKC antibodies. […] Changes in translocation of δPKC isozyme were also determined by immunofluoresence study of treated and fixed cells (Gray et al., 1997). […]

[1] = system: isolated adult rat cardiac myocytes; test: Simulated ischemia in isolated cardiac myocytes, cell damage by osmotic fragility test (trypan blue uptake); format: cell-based
Experimental: In another study, the δPKC activator peptide, ψδRACK, and the δPKC inhibitor peptide, δV1-1 were administered to isolated rat cardiac myocytes to determine the role of δPKC in protection from ischemia. As described in Example 2, the Antennapedia carrier-peptide conjugate of δV1-1 and/or ψδRACK was introduced into isolated adult rat cardiac myocytes ten minutes prior to prolonged ischemia. Cell damage was assessed using an osmotic fragility test by measuring uptake of trypan blue.
Adult male Wistar rat cardiomyocytes were prepared on a Langendorff apparatus (van der Heide, R. S. et al.) by collagenase treatment (Armstrong, S. et al.). The cells were treated with δV1-1 at concentrations of 10 nM, 100 nM, 500 nM, and 1 μM in the presence or absence of 1 μM ψδRACK. βPKC-selective activator was used as a control.
For […] ischemia, adult myocytes treated in microcentrifuge tubes with δV1-1 and/or ψδRACK peptides conjugated to the carrier were washed twice with degassed glucose-free incubation buffer and pelleted. On top of a minimal amount of buffer, the cell pellets were overlaid with either a micro-balloon (Sig Manufacturing, Montezuma, Iowa) or with degassed buffer saturated with nitrogen, and sealed with an airtight top. Tubes were then incubated at 37 C for either 180 minutes or 90 minutes.
Cell damage was assessed by an osmotic fragility test by measuring the uptake of trypan blue added in a hypotonic (85 mosM) solution. Similar results were also obtained by using a live-dead kit (Molecular Probes) or measuring the release of […] to the medium using a kit (Sigma) as previously described (Chen, et al., 1999; Gray et al., 1997; Mackay et al., 1999).

translocation of εPKC (εPKC) | Sequence | cardiac myocyte damage after ischemic insult ([1]; 1 μM ψδRACK, 180 minute ischemia) | effect of co-incubation on the δV1-1 protection from ischemia-induced damage ([1]; co-incubation with δV1-1, 180 minute ischemia, ψδRACK 1 μM) | ψδRACK-induced increase in cell damage ([1]; ischemia shortened to 90 minutes) | protection from ischemia-induced cell damage ([1]; 10 nM, 100 nM, 500 nM, 1 μM, given 10 minutes prior to 180 minute ischemia) | effect of co-treatment on the ψδRACK-induced increase in cell damage ([1]; 90 minute ischemia, co-treatment with ψδRACK)
without affecting | MRAAEDPM (also: conjugated to Antennapedia or Tat carrier; listed as Rattus norvegicus) [ψδRACK, tested conjugated to Antennapedia or Tat carrier] | slight increase | prevented | became significant | – | –
did not inhibit | SFNSYELGSL (also: conjugated to Antennapedia or Tat carrier; listed as Rattus norvegicus) [δV1-1, tested conjugated to Antennapedia or Tat carrier] | – | – | – | concentration-dependent level of protection | reversed
